# US20180251847A1, “METHOD OF PREDICTING THE TUMOR RESPONSE TO DNA METHYLATION INHIBITORS AND ALTERNATIVE THERAPEUTIC REGIMEN FOR OVERCOMING RESISTANCE” (PALACKY UNIVERSITY, OLOMOUC, priority 2014, published 2018)
# Test system: HCT116 xenografts
# Assay: Anti-tumor activity in xenografted mouse model, parental HCT116
# Format: in vivo, SCID mice
# Settings: parental HCT116 xenograft, DAC 2.5 mg/kg i.p., 10 doses, day 0-21
# Text: For in vivo validation of HCT116 resistance towards DAC and sensitivity of DAC resistant tumors to (+)-JQ1 treatment, we studied the anti-tumor activity of DAC and (+)-JQ1 in HCT116 parental versus a resistant cell clone R1.4 (HCT116_RDAC). Xenografts were established in 11-12 weeks-old female SCID mice, inoculated with 5×10^6 cells, s.c. on both sides of the chest. After 2 weeks, tumors were palpable (average tumor volume 20 mm^3) and mice were assigned into four groups (8 mice/group). Group I: vehicle control for DAC (10:90, DMSO: PBS) and Group II: DAC, 2.5 mg/kg by i.p. injection once a day for 14 days (5 days on, 2 days off), total 10 doses. […] Body weights of the animals were measured daily and tumor volume data were collected twice a week. […]
# For determining the anti-tumor activity of the drugs, DAC and (+)-JQ1, tumor volume data for each group were transformed into relative tumor volumes followed by calculation of treatment to control ratio (T/C ratio) for each time point. […] Statistical significance of the data was determined by calculating bootstrap p-value, n=10000, one-sided test of H0: T/C ratio=1, H1: T/C ratio <1 (Jianrong Wu., Journal of Biopharmaceutical Statistics 2010; 20, 954-64). After day 21, statistical significance cannot be measured accurately due to decreased survival of animals in control group. […]
compound,measurement,value
"Nc1ncn([C@H]2C[C@H](O)[C@@H](CO)O2)c(=O)n1 [DAC, 2′-deoxy-5-azacytidine]","fold effect (anti-tumor activity, aAUC of T/C ratio)",2.9
